# How the values were obtained:
# [1] = target: T1, Tyrosine-protein phosphatase non-receptor type 11 (Homo sapiens, UniProt Q06124); experiment: Allosteric Inhibition of H2N-LN(pY)IDLDLV(dPEG8)LST(pY)ASINFQKASINFQK-amide-activated SHP2 (unknown origin) using DiFMUP as substrate pretreated with enzyme for 1 hr followed by substrate addition and measured after 20 mins by fluorescence based analysis
# T1 sequence (Q06124 whole entry): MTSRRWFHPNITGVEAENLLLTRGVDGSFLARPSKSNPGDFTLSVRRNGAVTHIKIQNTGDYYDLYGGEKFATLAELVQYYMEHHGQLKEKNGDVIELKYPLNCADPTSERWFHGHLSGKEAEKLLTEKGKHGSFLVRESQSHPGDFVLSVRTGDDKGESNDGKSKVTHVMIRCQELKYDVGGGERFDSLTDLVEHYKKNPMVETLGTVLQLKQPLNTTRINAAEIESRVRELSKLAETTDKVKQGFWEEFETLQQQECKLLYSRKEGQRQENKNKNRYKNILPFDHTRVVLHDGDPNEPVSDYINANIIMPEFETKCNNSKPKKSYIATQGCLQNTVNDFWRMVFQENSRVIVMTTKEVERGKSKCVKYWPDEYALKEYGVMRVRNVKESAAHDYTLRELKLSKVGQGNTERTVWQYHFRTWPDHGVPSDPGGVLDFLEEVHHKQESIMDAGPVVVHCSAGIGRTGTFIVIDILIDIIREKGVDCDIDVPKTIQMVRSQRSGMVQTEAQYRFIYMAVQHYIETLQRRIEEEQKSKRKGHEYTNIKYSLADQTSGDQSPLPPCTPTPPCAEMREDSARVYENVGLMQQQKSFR
# [2] = Hepatotoxicity in ICR mouse assessed as increase in plasma AST level at 100 mg/kg, po administered once every 2 days and measured on day 14; assay type: toxicity, organism-based; conditions: in vivo, 336 h, time 14 day
# MIA PaCa-2 [3] = experiment: Induction of apoptosis in human MIA PaCa-2 cells assessed as proportion of necrotic cells at 2.5 uM incubated for 72 hrs by AnnexinV-FITC/PI staining based flow cytometry (reference value: 0.19%); assay type: functional
# MIA PaCa-2 [4] = experiment: Induction of apoptosis in human MIA PaCa-2 cells assessed as proportion of viable cells at 2.5 uM incubated for 72 hrs by AnnexinV-FITC/PI staining based flow cytometry (reference value: 98.19%); assay type: functional
# RAW264.7 = experiment: Cytotoxicity against mouse RAW264.7 cells assessed as cell viability at 10 to 30 uM incubated for 72 hrs by CellTiter-LumiII Luminescent assay; assay type: toxicity, cell-based; conditions: raw264.7, 72 h, dose 10-30 µM
# [5] = Hepatotoxicity in ICR mouse assessed as increase in plasma ALP level at 100 mg/kg, po administered once every 2 days and measured on day 14; assay type: toxicity, organism-based; conditions: in vivo, 336 h, time 14 day
# [6] = Half life in ICR mouse at 1 mg/kg, iv measured for 24 hrs by LC-MS/MS analysis; assay type: ADME, organism-based; conditions: in vivo
# MIA PaCa-2 [7] = experiment: Induction of apoptosis in human MIA PaCa-2 cells assessed as proportion of late apoptotic cells at 2.5 uM incubated for 72 hrs by AnnexinV-FITC/PI staining based flow cytometry (reference value: 1.36%); assay type: functional
# MIA PaCa-2 [8] = experiment: Induction of apoptosis in human MIA PaCa-2 cells assessed as proportion of late apoptotic cells at 5 uM incubated for 72 hrs by AnnexinV-FITC/PI staining based flow cytometry (reference value: 1.36%); assay type: functional
# MIA PaCa-2 [9] = experiment: Antiproliferative activity against human MIA PaCa-2 cells harboring KRASG12C mutant assessed as inhibition of cell growth incubated for 72 hrs by CellTiter-LumiII Luminescent assay; assay type: functional, cell-based; conditions: MIA PaCa-2, 72 h
# MIA PaCa-2 [10] = experiment: Induction of apoptosis in human MIA PaCa-2 cells assessed as proportion of necrotic cells at 5 uM incubated for 72 hrs by AnnexinV-FITC/PI staining based flow cytometry (reference value: 0.19%); assay type: functional
# MIA PaCa-2 [11] = experiment: Induction of apoptosis in human MIA PaCa-2 cells assessed as proportion of early apoptotic cells at 10 uM incubated for 72 hrs by AnnexinV-FITC/PI staining based flow cytometry (reference value: 0.26%); assay type: functional
# MIA PaCa-2 [12] = experiment: Induction of apoptosis in human MIA PaCa-2 cells assessed as proportion of necrotic cells at 10 uM incubated for 72 hrs by AnnexinV-FITC/PI staining based flow cytometry (reference value: 0.19%); assay type: functional
# [13] = Hepatotoxicity in ICR mouse assessed as increase in plasma ALT level at 100 mg/kg, po administered once every 2 days and measured on day 14; assay type: toxicity, organism-based; conditions: in vivo, 336 h, time 14 day
# [14] = AUC in ICR mouse at 1 mg/kg, iv measured for 24 hrs by LC-MS/MS analysis; assay type: ADME, organism-based; parameters: time 24 hrs, dose 1 mg/kg, route iv; conditions: in vivo
# [15] = Tmax in ICR mouse at 10 mg/kg, po measured for 24 hrs by LC-MS/MS analysis; assay type: ADME, organism-based; conditions: in vivo
# MIA PaCa-2 [16] = experiment: Induction of apoptosis in human MIA PaCa-2 cells assessed as proportion of late apoptotic cells at 10 uM incubated for 72 hrs by AnnexinV-FITC/PI staining based flow cytometry (reference value: 1.36%); assay type: functional
# MIA PaCa-2 [17] = experiment: Induction of apoptosis in human MIA PaCa-2 cells assessed as proportion of early apoptotic cells at 5 uM incubated for 72 hrs by AnnexinV-FITC/PI staining based flow cytometry (reference value: 0.26%); assay type: functional
# KYSE-520 cell line = experiment: Antiproliferative activity against human KYSE-520 cells assessed as inhibition of cell growth incubated for 72 hrs by CellTiter-LumiII Luminescent assay; assay type: functional, cell-based; conditions: KYSE-520, 72 h
# [18] = Toxicity against BALB/c nude mouse xenografted with human MIA PaCa-2 cells assessed as effect on body weight at 20 to 40 mg/kg, po administered daily for 17 days; assay type: organism-based; conditions: in vivo, 408 h, dose 20-40 mg/kg, time 17 day
# MIA PaCa-2 [19] = experiment: Induction of apoptosis in human MIA PaCa-2 cells assessed as proportion of early apoptotic cells at 2.5 uM incubated for 72 hrs by AnnexinV-FITC/PI staining based flow cytometry (reference value: 0.26%); assay type: functional
# [20] = target: Tyrosine-protein phosphatase non-receptor type 6 (Homo sapiens, UniProt P29350); experiment: Inhibition of SHP1 (unknown origin) using DiFMUP as substrate pretreated with enzyme for 20 mins followed by substrate addition and measured for 2 hrs by fluorescence based analysis
# [21] = Oral bioavailability in ICR mouse at 10 mg/kg measured for 24 hrs by LC-MS/MS analysis; assay type: ADME, organism-based; conditions: in vivo
# [22] = Volume of distribution in ICR mouse at 1 mg/kg, iv measured for 24 hrs by LC-MS/MS analysis; assay type: ADME, organism-based; conditions: in vivo
# MIA PaCa-2 [23] = experiment: Antitumor activity against human MIA PaCa-2 cells xenografted in BALB/c nude mouse assessed as inhibition of tumor growth at 40 mg/kg, po administered daily for 17 days; assay type: functional; conditions: time 17 day
# [24] = target: T1, Tyrosine-protein phosphatase non-receptor type 11; experiment: Inhibition of SHP2 PTP domain (unknown origin) using DiFMUP as substrate pretreated with enzyme for 20 mins followed by substrate addition and measured for 2 hrs by fluorescence based analysis
# [25] = Clearance in ICR mouse at 1 mg/kg, iv measured for 24 hrs by LC-MS/MS analysis; assay type: ADME, organism-based; conditions: in vivo
# [26] = Cmax in ICR mouse at 10 mg/kg, po measured for 24 hrs by LC-MS/MS analysis; assay type: ADME, organism-based; parameters: time 24 hrs, dose 10 mg/kg, route po; conditions: in vivo
# MIA PaCa-2 [27] = experiment: Induction of apoptosis in human MIA PaCa-2 cells assessed as proportion of viable cells at 10 uM incubated for 72 hrs by AnnexinV-FITC/PI staining based flow cytometry (reference value: 98.19%); assay type: functional
# MIA PaCa-2 [28] = experiment: Induction of apoptosis in human MIA PaCa-2 cells assessed as proportion of viable cells at 5 uM incubated for 72 hrs by AnnexinV-FITC/PI staining based flow cytometry (reference value: 98.19%); assay type: functional
# [29] = Toxicity against BALB/c nude mouse xenografted with human MIA PaCa-2 cells assessed as animal's death at 20 to 40 mg/kg, po administered daily for 17 days; assay type: organism-based; conditions: in vivo, 408 h, dose 20-40 mg/kg, time 17 day
# [30] = Half life in ICR mouse at 10 mg/kg, po measured for 24 hrs by LC-MS/MS analysis; assay type: ADME, organism-based; conditions: in vivo
# [31] = AUC in ICR mouse at 10 mg/kg, po measured for 24 hrs by LC-MS/MS analysis; assay type: ADME, organism-based; parameters: dose 10 mg/kg, time 24 hrs, route po; conditions: in vivo
# Chain of Tyrosine-protein phosphatase non-receptor type 6 (P29350 whole entry): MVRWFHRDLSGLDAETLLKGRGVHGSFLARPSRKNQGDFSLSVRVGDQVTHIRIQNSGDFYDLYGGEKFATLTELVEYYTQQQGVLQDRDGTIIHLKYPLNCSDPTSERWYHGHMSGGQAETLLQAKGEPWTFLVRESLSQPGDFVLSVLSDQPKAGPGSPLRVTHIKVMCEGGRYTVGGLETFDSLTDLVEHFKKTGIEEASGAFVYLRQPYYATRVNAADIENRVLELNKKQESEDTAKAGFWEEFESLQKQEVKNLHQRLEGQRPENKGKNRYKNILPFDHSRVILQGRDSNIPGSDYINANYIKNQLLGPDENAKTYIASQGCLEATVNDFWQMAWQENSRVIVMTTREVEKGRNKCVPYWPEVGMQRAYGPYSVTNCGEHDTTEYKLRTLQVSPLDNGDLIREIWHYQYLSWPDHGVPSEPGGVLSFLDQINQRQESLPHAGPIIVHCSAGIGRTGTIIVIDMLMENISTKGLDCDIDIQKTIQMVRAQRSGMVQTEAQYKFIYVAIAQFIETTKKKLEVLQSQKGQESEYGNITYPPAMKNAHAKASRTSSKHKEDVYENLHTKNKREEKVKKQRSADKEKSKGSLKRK
compound,measurement,setting,value
N/C(=N\c1ccc(F)cc1)N1CCN(c2cnc(-c3cccc(Cl)c3Cl)c(N)n2)CC1,IC50,[1],53.3 nM
N/C(=N\c1ccccn1)N1CCN(c2cnc(-c3cccc(Cl)c3Cl)c(N)n2)CC1,IC50,[1],184 nM
NC(=O)N1CCN(c2cnc(-c3cccc(Cl)c3Cl)c(N)n2)CC1,IC50,[1],6360 nM
N/C(=N\c1ccc(C(F)(F)F)cc1)N1CCN(c2cnc(-c3cccc(Cl)c3Cl)c(N)n2)CC1,IC50,[1],92.2 nM
COc1cccc(/N=C(\N)N2CCN(c3cnc(-c4cccc(Cl)c4Cl)c(N)n3)CC2)c1,IC50,[1],30.4 nM
N#Cc1cc(/N=C(\N)N2CCN(c3cnc(-c4cccc(Cl)c4Cl)c(N)n3)CC2)cs1,IC50,[1],72.8 nM
COc1cc(/N=C(\N)N2CCN(c3cnc(-c4cccc(Cl)c4Cl)c(N)n3)CC2)ccc1C#N,Activity,[2],Non-Toxic
same,Activity,MIA PaCa-2 [3],0.21%
same,Activity,MIA PaCa-2 [4],88.63%
same,Activity,RAW264.7,Non-Toxic
same,Activity,[5],Non-Toxic
same,half-life,[6],1.9 h
same,Activity,MIA PaCa-2 [7],6.18%
same,Activity,MIA PaCa-2 [8],12.55%
same,IC50,MIA PaCa-2 [9],6800 nM
same,Activity,MIA PaCa-2 [10],0.15%
same,Activity,MIA PaCa-2 [11],12.54%
same,Activity,MIA PaCa-2 [12],0.22%
same,Activity,[13],Non-Toxic
same,AUC at 24 h,[14],0.651 µM·h
same,Tmax,[15],0.8 h
same,Activity,MIA PaCa-2 [16],23.65%
same,Activity,MIA PaCa-2 [17],7.47%
same,IC50,KYSE-520 cell line,1800 nM
same,Activity,[18],Non-Toxic
same,Activity,MIA PaCa-2 [19],4.98%
same,IC50,[20],> 30000 nM
same,bioavailability,[21],66.3%
same,Vd,[22],8.4 L/kg
same,inhibition (INH),MIA PaCa-2 [23],48%
same,IC50,[24],> 30000 nM
same,clearance,[25],52.2 mL/min/kg
same,Cmax,[26],1090 nM
same,Activity,MIA PaCa-2 [27],63.59%
same,IC50,[1],17.7 nM
same,Activity,MIA PaCa-2 [28],79.83%
same,Activity,[29],Non-Toxic
same,half-life,[30],2 h
same,AUC at 24 h,[31],4.32 µM·h
NC(=S)N1CCN(c2cnc(-c3cccc(Cl)c3Cl)c(N)n2)CC1,IC50,[1],1150 nM
N/C(=N\C(=O)c1ccncc1)N1CCN(c2cnc(-c3cccc(Cl)c3Cl)c(N)n2)CC1,IC50,[1],4850 nM
N#Cc1ccc(/N=C(\N)N2CCN(c3cnc(Sc4cccnc4C(F)(F)F)c(N)n3)CC2)cc1,IC50,[1],159 nM
CN/C(=N\c1ccc(C#N)cc1)N1CCN(c2cnc(-c3cccc(Cl)c3Cl)c(N)n2)CC1,IC50,[1],2000 nM
N/C(=N\c1ccsc1)N1CCN(c2cnc(-c3cccc(Cl)c3Cl)c(N)n2)CC1,IC50,[1],48.1 nM
N/C(=N\c1cncnc1)N1CCN(c2cnc(-c3cccc(Cl)c3Cl)c(N)n2)CC1,IC50,[1],210 nM
COc1ccc(/N=C(\N)N2CCN(c3cnc(-c4cccc(Cl)c4Cl)c(N)n3)CC2)cc1,IC50,[1],52.7 nM
CN(CCN(C)c1cnc(-c2cccc(Cl)c2Cl)c(N)n1)C(=N)N,IC50,[1],6250 nM
N/C(=N\c1cccs1)N1CCN(c2cnc(-c3cccc(Cl)c3Cl)c(N)n2)CC1,IC50,[1],252 nM
N=C(N)N1CCN(c2cnc(-c3cccc(Cl)c3Cl)c(N)n2)CC1,IC50,[1],414 nM
N=C(N)N1CCN(c2cnc(-c3cccc(Cl)c3Cl)c(N)n2)C(=O)C1,IC50,[1],> 10000 nM
N/C(=N\c1ccccc1)N1CCN(c2cnc(-c3cccc(Cl)c3Cl)c(N)n2)CC1,IC50,[1],137 nM
N/C(=N\c1ccncc1)N1CCN(c2cnc(-c3cccc(Cl)c3Cl)c(N)n2)CC1,IC50,[1],64.5 nM
N/C(=N\c1cccnc1)N1CCN(c2cnc(-c3cccc(Cl)c3Cl)c(N)n2)CC1,IC50,[1],142 nM
CC1(N)CCN(c2cnc(-c3cccc(Cl)c3Cl)c(N)n2)CC1,Activity,[2],Toxic
same,Activity,RAW264.7,Non-Toxic
same,Activity,[5],Toxic
same,IC50,MIA PaCa-2 [9],41900 nM
same,Activity,[13],Toxic
same,IC50,KYSE-520 cell line,10800 nM
N#Cc1ccc(/N=C(\N)N2CCN(c3cnc(-c4cccc(Cl)c4Cl)c(N)n3)CC2)cn1,IC50,[1],74.2 nM
N/C(=N\c1ncccn1)N1CCN(c2cnc(-c3cccc(Cl)c3Cl)c(N)n2)CC1,IC50,[1],715 nM
N#Cc1ccc(/N=C(\N)N2CCN(c3cnc(-c4cccc(Cl)c4Cl)c(N)n3)CC2)cc1,IC50,[1],34.6 nM
COc1ccccc1/N=C(\N)N1CCN(c2cnc(-c3cccc(Cl)c3Cl)c(N)n2)CC1,IC50,[1],112 nM
N/C(=N\c1cnccn1)N1CCN(c2cnc(-c3cccc(Cl)c3Cl)c(N)n2)CC1,IC50,[1],396 nM
CNC(=O)c1ccc(/N=C(\N)N2CCN(c3cnc(-c4cccc(Cl)c4Cl)c(N)n3)CC2)cc1,IC50,[1],3210 nM
Nc1nc(N2CCN(S(N)(=O)=O)CC2)cnc1-c1cccc(Cl)c1Cl,IC50,[1],3400 nM
N#Cc1ccc(/N=C(\N)N2CCN(c3cnc(-c4cccc(Cl)c4Cl)cn3)CC2)cc1,IC50,[1],3760 nM
